How the values were obtained:
[1] = system: A549 cells; experiment: MTT cytotoxicity assay, parental A549 cells; format: cell-based, Human; details: 96 hours exposure, mean of at least three experiments
Protocol: (§1) Tissue culture: Human non-small cell lung cancer A549 cells and T-cell leukemia CCRF-CEM cells were grown under monolayer conditions or up to a maximal density of 10^6 cells/ml (for CCRF-CEM cells) in RPMI-1640 medium (GIBCO) supplemented with 10% fetal calf serum, 2 mM glutamine, 100 μg/ml penicillin and 100 μg/ml streptomycin (Biological Industries, Beth-Haemek, Israel) in a humid atmosphere of 5% CO2. Drug resistant A549/K1.5 cells with ABCG2 overexpression were maintained under a continuous drug selection with 1.5 μM C-1305. Bram, E. E., et al., (2007) Biochem Pharmacol 74(1), 41-53.
(§2) Cytotoxicity and growth inhibition assays: The cytotoxic activity of the various IA antitumor agents was determined using the MTT assay. Poindessous, V., et al., (2003) Clin Cancer Res 9(7), 2817-2825.
(§3) Exponentially growing cells were seeded at 5×10^3 cells/well in 24-well plates (2 ml medium/well). Following an overnight incubation, cells were exposed to different drug concentrations for 96 hours. Cellular viability was determined by adding the tetrazolium salt MTT for 4 h at 37° C., followed by solubilization of the intracellular precipitated formazan in 1 ml DMSO and absorbance was determined by a microplate reader (ASYS Hitech GmbH, Austria). Drug concentrations required to inhibit cell growth by 50% (IC50) compared with untreated controls were determined from the curves of survival versus drug concentrations using the SlideWrite software (Advanced Graphics Software, Inc., Encinitas, Calif.). Resistance folds (RF) were calculated by dividing the IC50 value of the resistant cells by that of the parental cell line. Values presented are means of at least three independent experiments, each performed in duplicates.

[2] = system: A549/K1.5 cells; experiment: MTT cytotoxicity assay, ABCG2-overexpressing A549/K1.5 cells; format: cell-based, Human; details: for IC50: ABCG2-overexpressing A549/K1.5 cells, 96 hours exposure, MTT; for RF (resistance fold): IC50 of A549/K1.5 cells divided by IC50 of parental A549 cells
Protocol: as §1, §2, §3
Quantitative evaluation of ABCG2 interaction with various IA derivatives: The extent of ABCG2-mediated resistance was expressed using the Resistance Fold (RF) parameter representing the ratio between the IC50 values of the resistant cells and parental cells. Likewise, ABCG2-dependent differential accumulation of IAs in ABCG2-overexpressing A549/K1.5 cells was compared using the ratio of IA accumulation in the presence or absence of the potent ABCG2 inhibitor FTC. This was termed the FTC-dependent Accumulation Fold (AF) and was determined for each IA at a constant IA concentration of 10 μM.

Row | SMILES | IC50 [1] [µM] | IC50 [2] [µM] | RF (resistance fold) [2] | hypersensitivity of A549/K1.5 cells ([2]; versus parental A549 cells) [fold] | resistance of A549/K1.5 cells (in words) ([2]; versus parental A549 cells)
1 | CN(C)CCNc1ccc2ncn3c4ccccc4c(=O)c1c23.Cl [C-1176] | 2.35 ± 0.75 | 1.21 ± 0.65 | 0.51 |  | 
2 | CN(C)CCCNc1ccc2ncn3c4ccccc4c(=O)c1c23.Cl [C-1212] | 1.89 ± 0.42 | 1.93 ± 0.84 | 1.02 |  | 
3 | Cc1nc2ccc(NCCN(C)C)c3c(=O)c4ccccc4n1c23.Cl [C-1213] | 12.3 ± 2.5 | 18.3 ± 2.4 | 1.49 |  | 
4 | CCN(CC)CCNc1ccc2ncn3c4ccc(OC)cc4c(=O)c1c23.Cl [C-1330] | 2.16 ± 0.27 | 0.97 ± 0.08 | 0.45 | 2.2 | 
5 | CCN(CC)CCCNc1ccc2ncn3c4ccc(O)cc4c(=O)c1c23.Cl [C-1335] | 0.09 ± 0.004 | 1 ± 0.25 | 11.10 |  | prominent resistance
6 | CN(C)CCCNc1ccc2ncn3c4ccc(O)cc4c(=O)c1c23.Cl [C-1371] | 0.04 ± 0.006 | 0.7 ± 0.03 | 17.90 |  | prominent resistance
7 | COc1ccc2c(c1)c(=O)c1c(NCCCN(C)C)ccc3nc(C)n2c31.Cl [C-1375] | 1.3 ± 0.06 | 1.25 ± 0.11 | 0.96 |  | 
8 | CCN(CC)CCCNc1ccc2nc(C)n3c4ccc(OC)cc4c(=O)c1c23.Cl [C-1379] | 1.07 ± 0.03 | 0.68 ± 0.06 | 0.63 |  | 
9 | CCN(CC)CCNc1ccc2ncn3c4ccccc4c(=O)c1c23.Cl [C-1415] | 2.7 ± 0.21 | 2.38 ± 0.12 | 0.88 |  | 
10 | CCN(CC)CCNc1ccc2ncn3c4cc(O)ccc4c(=O)c1c23.Cl [C-1419] | 2.92 ± 0.42 | 31.3 ± 2.55 | 10.70 |  | prominent resistance
11 | CN(C)CCCCCNc1ccc2ncn3c4ccc(O)cc4c(=O)c1c23.Cl [C-1492] | 1.69 ± 0.12 | 17.2 ± 1.95 | 10.10 |  | prominent resistance
12 | CCN(CC)CCNc1ccc2ncn3c4c(OC)ccc(OC)c4c(=O)c1c23.Cl [C-1503] | 3.5 ± 0.64 | 3.09 ± 0.74 | 0.88 |  | 
13 | CCN(CC)CCNc1ccc2ncn3c4ccc(C)cc4c(=O)c1c23.Cl [C-1554] | 2.02 ± 0.33 | 3.07 ± 0.8 | 1.51 |  | 
14 | CCN(CC)CCNc1ccc2ncn3c4ccc(C(C)(C)C)cc4c(=O)c1c23.Cl [C-1558] | 1.48 ± 0.25 | 2.51 ± 0.17 | 1.70 |  | 
15 | CN(C)CCNc1ccc2ncn3c4ccc(O)cc4c(=O)c1c23.Cl [C-1584] | 0.01 ± 0.002 | 0.25 ± 0.01 | 19.20 |  | prominent resistance
16 | CCN(CC)CCNc1ccc2ncn3c4c(O)cccc4c(=O)c1c23.Cl [C-1633] | 2.26 ± 0.33 | 9.83 ± 1.44 | 4.35 |  | prominent resistance

Reference: US8470844B2, “Imidazoacridinone derivative compounds and methods for their use” (Technion Research & Development Foundation Limited, priority 2008, dated 2013)
